Laboratory results: ChEMBL document CHEMBL5154753, “Discovery and Structural Optimization of Toddacoumalone Derivatives as Novel PDE4 Inhibitors for the Topical Treatment of Psoriasis” (J Med Chem, 2022)
In brackets after ≈: the same amount, converted by molar mass. Activity calls are given as the source filed them. No cut-off for these calls is given here.

How the values were obtained:
Mus musculus [1] = species: Mus musculus; assay: Anti-psoriatic activity in IMQ-induced BALB/c psoriasis mouse model assessed as reduction in erythema score at 62.5 mg as 4% ointment, TOP daily and measured upto 7 days; format: functional, organism-based; conditions: time <= 7.0 day, DDE = dose-dependent effect
[2] = biological target: Voltage-gated inwardly rectifying potassium channel KCNH2 (Homo sapiens, UniProt Q12809); assay: Inhibition of hERG by Q patch automated patch-clamp method; format: toxicity
Chain of Voltage-gated inwardly rectifying potassium channel KCNH2 (Q12809 whole entry): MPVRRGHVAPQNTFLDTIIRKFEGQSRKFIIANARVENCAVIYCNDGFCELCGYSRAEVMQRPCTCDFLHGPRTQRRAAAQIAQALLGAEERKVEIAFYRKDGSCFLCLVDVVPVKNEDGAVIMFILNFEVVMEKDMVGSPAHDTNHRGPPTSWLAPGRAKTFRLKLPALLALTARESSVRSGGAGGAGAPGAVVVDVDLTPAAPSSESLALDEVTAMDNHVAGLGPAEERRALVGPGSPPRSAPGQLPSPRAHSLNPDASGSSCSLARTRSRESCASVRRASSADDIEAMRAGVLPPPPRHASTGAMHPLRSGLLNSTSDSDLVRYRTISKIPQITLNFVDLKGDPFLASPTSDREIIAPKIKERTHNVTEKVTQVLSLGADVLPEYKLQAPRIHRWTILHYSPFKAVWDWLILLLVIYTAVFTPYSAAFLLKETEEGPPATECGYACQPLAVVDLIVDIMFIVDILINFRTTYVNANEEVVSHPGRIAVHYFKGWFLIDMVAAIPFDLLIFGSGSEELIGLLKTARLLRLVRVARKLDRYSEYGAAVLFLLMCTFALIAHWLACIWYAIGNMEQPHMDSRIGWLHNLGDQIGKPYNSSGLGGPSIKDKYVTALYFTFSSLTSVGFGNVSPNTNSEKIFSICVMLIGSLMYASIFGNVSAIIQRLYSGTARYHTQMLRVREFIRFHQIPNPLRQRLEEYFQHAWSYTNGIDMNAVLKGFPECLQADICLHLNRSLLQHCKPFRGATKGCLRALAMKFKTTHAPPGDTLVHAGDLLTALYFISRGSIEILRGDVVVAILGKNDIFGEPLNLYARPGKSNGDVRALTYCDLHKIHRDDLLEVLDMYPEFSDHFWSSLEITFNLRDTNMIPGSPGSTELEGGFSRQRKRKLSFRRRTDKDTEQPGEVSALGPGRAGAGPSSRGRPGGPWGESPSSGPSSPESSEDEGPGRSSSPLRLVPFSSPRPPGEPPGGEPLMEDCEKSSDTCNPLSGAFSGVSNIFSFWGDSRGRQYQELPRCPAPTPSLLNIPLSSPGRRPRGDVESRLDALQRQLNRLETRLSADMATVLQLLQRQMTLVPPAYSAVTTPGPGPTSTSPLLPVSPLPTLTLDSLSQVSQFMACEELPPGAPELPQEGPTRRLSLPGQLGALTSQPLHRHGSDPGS

Mus musculus [3] = species: Mus musculus; assay: Anti-psoriatic activity in IMQ-induced BALB/c psoriasis mouse model assessed as reduction in scales score at 62.5 mg as 2% ointment, TOP daily and measured upto 7 days; format: functional, organism-based; conditions: time <= 7.0 day, DDE = dose-dependent effect
RAW264.7 = assay: Cytotoxicity against mouse RAW264.7 cells assessed as cell viability incubated for 48 hrs; format: toxicity, cell-based; conditions: raw264.7, 48 h
[4] = biological target: 3',5'-cyclic-AMP phosphodiesterase 4B (Homo sapiens, UniProt Q07343); assay: Inhibition of PDE4B2 (152 to 487 residues) (unknown origin) expressed in Escherichia coli BL21 using [3H-GMP] or [3H-AMP] as substrate incubated for 15 mins by liquid scintillation counting method
Chain of 3',5'-cyclic-AMP phosphodiesterase 4B (Q07343 whole entry, the tested form may be a part): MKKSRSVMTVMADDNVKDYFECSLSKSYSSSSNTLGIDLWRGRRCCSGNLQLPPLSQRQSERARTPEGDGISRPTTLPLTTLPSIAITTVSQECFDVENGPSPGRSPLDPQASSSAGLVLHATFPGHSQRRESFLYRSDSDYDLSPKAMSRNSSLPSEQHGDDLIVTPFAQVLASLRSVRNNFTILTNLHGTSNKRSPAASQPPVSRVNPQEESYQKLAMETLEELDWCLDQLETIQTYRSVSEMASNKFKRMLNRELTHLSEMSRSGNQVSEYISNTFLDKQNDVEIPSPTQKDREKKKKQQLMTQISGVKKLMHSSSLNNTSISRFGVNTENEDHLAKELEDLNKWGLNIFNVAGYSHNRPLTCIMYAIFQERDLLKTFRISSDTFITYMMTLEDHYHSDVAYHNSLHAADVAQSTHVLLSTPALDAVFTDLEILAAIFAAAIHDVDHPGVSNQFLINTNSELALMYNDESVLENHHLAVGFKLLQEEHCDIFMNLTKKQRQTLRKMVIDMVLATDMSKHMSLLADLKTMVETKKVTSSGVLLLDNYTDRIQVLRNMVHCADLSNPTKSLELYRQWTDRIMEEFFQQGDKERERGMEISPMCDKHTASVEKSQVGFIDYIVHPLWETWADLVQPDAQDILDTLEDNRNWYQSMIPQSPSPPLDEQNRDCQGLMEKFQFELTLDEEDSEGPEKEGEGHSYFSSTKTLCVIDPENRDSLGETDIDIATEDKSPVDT

[5] = Stability in mouse liver microsomes assessed as half life measure upto 45 mins in presence of NADPH by LC-MS analysis; format: ADME, Microsome
Mus musculus [6] = species: Mus musculus; assay: Anti-psoriatic activity in IMQ-induced BALB/c psoriasis mouse model assessed as reduction IMQ- induced immune response by measuring spleen weight loss at 62.5 mg as 2% ointment, TOP daily and measured upto 7 days; format: functional, organism-based; conditions: time <= 7.0 day
[7] = biological target: High affinity cAMP-specific and IBMX-insensitive 3',5'-cyclic phosphodiesterase 8A (Homo sapiens, UniProt O60658); assay: Inhibition of PDE8A1 (480 to 820 residues) (unknown origin) expressed in Escherichia coli BL21 using [3H-GMP] or [3H-AMP] as substrate incubated for 15 mins by liquid scintillation counting method
Chain of High affinity cAMP-specific and IBMX-insensitive 3',5'-cyclic phosphodiesterase 8A (O60658 whole entry, the tested form may be a part): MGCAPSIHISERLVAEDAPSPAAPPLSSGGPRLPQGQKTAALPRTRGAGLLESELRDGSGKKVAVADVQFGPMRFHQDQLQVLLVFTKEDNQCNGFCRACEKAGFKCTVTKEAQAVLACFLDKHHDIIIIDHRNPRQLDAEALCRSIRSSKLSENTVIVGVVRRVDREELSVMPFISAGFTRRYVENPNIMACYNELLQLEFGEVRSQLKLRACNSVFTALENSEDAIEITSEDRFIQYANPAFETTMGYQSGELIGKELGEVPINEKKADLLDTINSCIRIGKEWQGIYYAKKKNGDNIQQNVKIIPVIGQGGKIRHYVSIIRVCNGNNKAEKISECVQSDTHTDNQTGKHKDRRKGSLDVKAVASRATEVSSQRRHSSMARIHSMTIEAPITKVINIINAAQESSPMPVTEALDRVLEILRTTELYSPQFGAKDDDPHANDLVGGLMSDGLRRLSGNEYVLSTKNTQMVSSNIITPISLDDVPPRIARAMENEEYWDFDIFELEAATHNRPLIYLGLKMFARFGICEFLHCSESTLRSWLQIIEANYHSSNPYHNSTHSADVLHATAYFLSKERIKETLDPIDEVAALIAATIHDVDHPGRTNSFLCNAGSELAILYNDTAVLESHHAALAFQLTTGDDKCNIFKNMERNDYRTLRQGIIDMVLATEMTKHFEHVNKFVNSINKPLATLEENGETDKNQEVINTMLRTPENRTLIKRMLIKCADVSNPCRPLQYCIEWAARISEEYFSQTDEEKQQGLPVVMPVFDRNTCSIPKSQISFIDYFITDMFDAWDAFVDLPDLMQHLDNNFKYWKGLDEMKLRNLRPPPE

Mus musculus [8] = species: Mus musculus; assay: Anti-psoriatic activity in IMQ-induced BALB/c psoriasis mouse model assessed as reduction in erythema score at 62.5 mg as 2% ointment, TOP daily and measured upto 7 days; format: functional, organism-based; conditions: time <= 7.0 day, DDE = dose-dependent effect
Mus musculus [9] = species: Mus musculus; assay: Anti-psoriatic activity in IMQ-induced BALB/c psoriasis mouse model assessed as reduction in dermal cell proliferation at 62.5 mg as 4% ointment, TOP daily for 7 days by Ki67+ expression based immunohistochemistry analysis; format: functional, organism-based; conditions: time 7.0 day
[10] = Clearance in ICR mouse at 10 mg/kg, iv measured upto 24 hrs by LC-MS/MS analysis; format: ADME, organism-based; conditions: in vivo
Mus musculus [11] = species: Mus musculus; assay: Anti-psoriatic activity in IMQ-induced BALB/c psoriasis mouse model assessed as reduction IMQ- induced immune response by measuring spleen weight loss at 62.5 mg as 4% ointment, TOP daily and measured upto 7 days; format: functional, organism-based; conditions: time <= 7.0 day
[12] = biological target: cGMP-inhibited 3',5'-cyclic phosphodiesterase 3A (Homo sapiens, UniProt Q14432); assay: Inhibition of PDE3A (679 to 1087 residues) (unknown origin) expressed in Escherichia coli BL21 using [3H-GMP] or [3H-AMP] as substrate incubated for 15 mins by liquid scintillation counting method
Chain of cGMP-inhibited 3',5'-cyclic phosphodiesterase 3A (Q14432 whole entry, the tested form may be a part): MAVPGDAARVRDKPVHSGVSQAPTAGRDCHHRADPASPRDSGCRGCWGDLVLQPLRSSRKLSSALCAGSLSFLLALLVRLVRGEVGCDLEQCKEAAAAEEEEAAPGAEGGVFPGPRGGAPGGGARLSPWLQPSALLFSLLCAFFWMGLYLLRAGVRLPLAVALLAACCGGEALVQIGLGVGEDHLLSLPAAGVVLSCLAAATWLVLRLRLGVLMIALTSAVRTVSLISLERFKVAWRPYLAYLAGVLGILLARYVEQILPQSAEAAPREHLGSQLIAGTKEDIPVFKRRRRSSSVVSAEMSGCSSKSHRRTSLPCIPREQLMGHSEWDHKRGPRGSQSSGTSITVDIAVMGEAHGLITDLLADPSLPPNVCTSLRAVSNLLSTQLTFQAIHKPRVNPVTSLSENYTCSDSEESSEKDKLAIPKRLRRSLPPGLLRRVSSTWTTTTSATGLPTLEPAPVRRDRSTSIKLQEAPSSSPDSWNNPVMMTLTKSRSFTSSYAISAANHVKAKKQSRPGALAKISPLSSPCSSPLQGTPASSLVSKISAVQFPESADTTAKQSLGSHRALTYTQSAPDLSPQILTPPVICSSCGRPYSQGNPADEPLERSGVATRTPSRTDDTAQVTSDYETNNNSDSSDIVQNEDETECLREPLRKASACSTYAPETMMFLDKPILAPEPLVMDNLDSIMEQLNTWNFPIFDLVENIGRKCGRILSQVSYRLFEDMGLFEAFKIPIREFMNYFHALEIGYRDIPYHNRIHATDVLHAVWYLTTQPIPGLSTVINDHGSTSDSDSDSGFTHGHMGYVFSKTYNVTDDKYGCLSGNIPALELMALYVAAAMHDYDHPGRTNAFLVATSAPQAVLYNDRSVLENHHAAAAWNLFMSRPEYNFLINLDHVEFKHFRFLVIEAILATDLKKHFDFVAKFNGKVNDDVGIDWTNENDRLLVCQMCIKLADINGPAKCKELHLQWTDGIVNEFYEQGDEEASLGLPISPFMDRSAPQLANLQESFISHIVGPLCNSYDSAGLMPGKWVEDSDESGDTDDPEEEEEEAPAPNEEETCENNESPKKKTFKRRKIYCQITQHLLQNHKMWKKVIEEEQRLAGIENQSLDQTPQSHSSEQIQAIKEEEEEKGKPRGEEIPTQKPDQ

Mus musculus [13] = assay: Anti-psoriatic activity in IMQ-induced BALB/c psoriasis mouse model assessed as reduction in erythema score at 10 mg/kg, po for 7 days; format: functional, organism-based; conditions: time 7.0 day
[14] = Aqueous solubility of compound by HPLC analysis; format: physicochemical; conditions: buffer
Mus musculus [15] = assay: Anti-psoriatic activity in IMQ-induced BALB/c psoriasis mouse model assessed as reduction in scales score at 10 mg/kg, po for 7 days; format: functional, organism-based; conditions: time 7.0 day
Mus musculus [16] = assay: Anti-psoriatic activity in IMQ-induced BALB/c psoriasis mouse model assessed as reduction in thickness score at 10 mg/kg, po for 7 days; format: functional, organism-based; conditions: time 7.0 day
[17] = biological target: High affinity 3',5'-cyclic-AMP phosphodiesterase 7A (Homo sapiens, UniProt Q13946); assay: Inhibition of PDE7A1 (130 to 482 residues) (unknown origin) expressed in Escherichia coli BL21 using [3H-GMP] or [3H-AMP] as substrate incubated for 15 mins by liquid scintillation counting method
Chain of High affinity 3',5'-cyclic-AMP phosphodiesterase 7A (Q13946 whole entry, the tested form may be a part): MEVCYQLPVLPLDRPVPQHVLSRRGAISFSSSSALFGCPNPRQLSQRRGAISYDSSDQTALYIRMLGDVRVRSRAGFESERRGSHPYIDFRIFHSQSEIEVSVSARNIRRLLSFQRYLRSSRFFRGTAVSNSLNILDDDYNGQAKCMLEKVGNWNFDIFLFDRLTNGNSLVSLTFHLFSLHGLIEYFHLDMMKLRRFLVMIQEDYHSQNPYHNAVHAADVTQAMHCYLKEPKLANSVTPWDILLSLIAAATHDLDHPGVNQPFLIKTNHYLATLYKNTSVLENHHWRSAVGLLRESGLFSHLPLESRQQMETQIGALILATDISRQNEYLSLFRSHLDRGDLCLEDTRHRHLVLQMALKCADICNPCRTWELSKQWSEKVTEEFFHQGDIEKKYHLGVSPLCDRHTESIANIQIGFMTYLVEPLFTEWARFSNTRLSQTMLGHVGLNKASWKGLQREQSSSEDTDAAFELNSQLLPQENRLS

[18] = Toxicity in BALB/c mouse assessed as body weight loss at 62.5 mg as 2% ointment, TOP daily and measured upto 7 days; conditions: in vivo, topical_or_ocular, 168 h, time < 7 day
[19] = biological target: cGMP-specific 3',5'-cyclic phosphodiesterase (Homo sapiens, UniProt O76074); assay: Inhibition of PDE5A1 (535 to 860 residues) (unknown origin) expressed in Escherichia coli BL21 using [3H-GMP] or [3H-AMP] as substrate incubated for 15 mins by liquid scintillation counting method
[20] = biological target: High affinity cGMP-specific 3',5'-cyclic phosphodiesterase 9A (Homo sapiens, UniProt O76083); assay: Inhibition of PDE9A2 (181 to 506 residues) (unknown origin) expressed in Escherichia coli BL21 using [3H-GMP] or [3H-AMP] as substrate incubated for 15 mins by liquid scintillation counting method
Chain of High affinity cGMP-specific 3',5'-cyclic phosphodiesterase 9A (O76083 whole entry, the tested form may be a part): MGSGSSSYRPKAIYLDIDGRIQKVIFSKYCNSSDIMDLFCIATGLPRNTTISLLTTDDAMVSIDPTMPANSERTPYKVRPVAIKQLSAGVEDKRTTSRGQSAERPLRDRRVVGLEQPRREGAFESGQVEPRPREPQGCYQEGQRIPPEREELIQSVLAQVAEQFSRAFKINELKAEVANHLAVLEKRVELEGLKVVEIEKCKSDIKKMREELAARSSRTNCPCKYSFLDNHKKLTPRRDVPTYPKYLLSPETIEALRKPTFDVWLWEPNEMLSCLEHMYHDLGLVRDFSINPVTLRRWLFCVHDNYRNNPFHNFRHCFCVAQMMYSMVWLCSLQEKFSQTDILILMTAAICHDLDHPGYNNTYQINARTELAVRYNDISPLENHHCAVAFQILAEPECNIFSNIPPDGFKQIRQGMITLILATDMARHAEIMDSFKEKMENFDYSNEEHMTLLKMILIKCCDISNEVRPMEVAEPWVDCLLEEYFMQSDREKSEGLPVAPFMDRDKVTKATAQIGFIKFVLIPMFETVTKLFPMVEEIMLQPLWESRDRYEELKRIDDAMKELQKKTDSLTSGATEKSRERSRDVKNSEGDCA

With CCn1c(=O)c2c(c3ccc(C)nc31)O[C@@](C)(CCO)C[C@H]2C=C(C)C the Activity (Mus musculus [1]) was “Dde”, the IC50 [2] was greater than 50000 nM and the Activity (Mus musculus [3]) was “Dde”. For the same molecule, the Activity (RAW264.7) was “Non-Toxic”, the IC50 [4] was 3.2 nM and the half-life [5] was 1.3 min. For the same molecule, the Activity (Mus musculus [6]) was “Active”, the IC50 [7] was 820 nM and the Activity (Mus musculus [8]) was “Dde”. For the same molecule, the Activity (Mus musculus [9]) was “Active”, the clearance [10] was 63.8 mL/min/kg and the Activity (Mus musculus [11]) was “Active”. For the same molecule, the IC50 [12] was greater than 10000 nM, the Activity (Mus musculus [13]) was “Active” and the solubility [14] was 10 µg/mL (≈ 28.1 µM). For the same molecule, the Activity (Mus musculus [15]) was “Active”, the Activity (Mus musculus [16]) was “Active” and the IC50 [17] was 2130 nM. For the same molecule, the Activity [18] was “Non-Toxic”, the IC50 [19] was 4250 nM and the IC50 [20] was greater than 10000 nM.
